Data: EP0093484A2, “Antibacterial monic acid derivatives” (BEECHAM GROUP PLC, priority 1982, dated 1983)
Converted amounts (≈) assume the structure as drawn. Like-named read-outs stand apart in the source and are kept apart here.

Experiments:
[1] = tested on: Staph. aureus B4 (pen. resistant); assay: Veterinary bacteria, MIC by two fold serial dilution in agar
Protocol: (§1) The activity of the compounds of the Examples against various organisms important in veterinary infections was determined using two fold serial dilutions in Diagnostic Sensitivity Test Agar inoculated with 10^4 organisms.

[2] = tested on: Neisseria catarrhalis 1502; assay: Human bacteria, MIC by serial dilution in nutrient agar; type: cell-based; details: nutrient agar with 5% chocolated horse blood, 18 hours at 37°C
Strep. pneumoniae CN33 = assay: as above; type: cell-based; details: nutrient agar with 5% chocolated horse blood, 18 hours at 37°C
[3] = tested on: Pasteurella multocida 1633; assay: as above; type: cell-based; details: nutrient agar with 5% chocolated horse blood, 18 hours at 37°C
Past. haemolytica PA5 = assay: Veterinary bacteria, MIC by two fold serial dilution in agar
Protocol: as §1

M. suipneumoniae UCD 1 = assay: Anti-mycoplasmal activity, MIC in Friis broth agarose; type: cell-based; details: Friis broth solidified with 0.9% agarose, 6 days incubation at 37°C
[4] = tested on: Corynebacterium pyogenes CY1; assay: Veterinary bacteria, MIC by two fold serial dilution in agar
Protocol: as §1

E. coli NCTC 10418 = assay: as above
Protocol: as §1

[5] = tested on: M. bovigenitalium ATCC 14173; assay: Anti-mycoplasmal activity, MIC in Friis broth agarose; type: cell-based; details: Friis broth solidified with 0.9% agarose, 6 days incubation at 37°C
M. suipneumoniae Str. 11 = assay: as above; type: cell-based; details: Friis broth solidified with 0.9% agarose, 6 days incubation at 37°C
M. pneumoniae ATCC 15492 = assay: as above; type: cell-based; details: Friis broth solidified with 0.9% agarose, 6 days incubation at 37°C
Bord. bronchiseptica BO9 = assay: Veterinary bacteria, MIC by two fold serial dilution in agar
Protocol: as §1

M. suipneumoniae LABER = assay: Anti-mycoplasmal activity, MIC in Friis broth agarose; type: cell-based; details: Friis broth solidified with 0.9% agarose, 6 days incubation at 37°C
Strep. uberis SPU1 = assay: Veterinary bacteria, MIC by two fold serial dilution in agar
Protocol: as §1

Past. multocida PA1 = assay: as above
Protocol: as §1

[6] = tested on: M. hyosynoviae ATCC 25591; assay: Anti-mycoplasmal activity, MIC in Friis broth agarose; type: cell-based; details: Friis broth solidified with 0.9% agarose, 6 days incubation at 37°C
M. hyorhinis ATCC 25021 = assay: as above; type: cell-based; details: Friis broth solidified with 0.9% agarose, 6 days incubation at 37°C
[7] = tested on: M. suipneumoniae PW/C/210; assay: as above; type: cell-based; details: Friis broth solidified with 0.9% agarose, 6 days incubation at 37°C
[8] = Streptococcus pneumoniae, read-out: MIC
[9] = Mannheimia haemolytica, PA5, 18 h
[10] = Mesomycoplasma hyopneumoniae, UCD1, 144 h, read-out: MIC
[11] = Escherichia coli, NCTC10418, 18 h
[12] = Mesomycoplasma hyopneumoniae, 144 h, read-out: MIC
[13] = Mycoplasmoides pneumoniae, ATCC15492, 144 h, read-out: MIC
[14] = Bordetella bronchiseptica, BO9, 18 h
[15] = Streptococcus uberis, SPU1, 18 h
[16] = Pasteurella multocida, PA1, 18 h
[17] = Mesomycoplasma hyorhinis, ATCC25021, 144 h, read-out: MIC
[18] = Staph. aureus B4 (pen. resistant), Diagnostic Sensitivity Test Agar, 18 hours at 37°C
[19] = Past. haemolytica PA5, Diagnostic Sensitivity Test Agar, 18 hours at 37°C
[20] = Corynebacterium pyogenes CY1, Diagnostic Sensitivity Test Agar, 18 hours at 37°C
[21] = E. coli NCTC 10418 (veterinary panel), Diagnostic Sensitivity Test Agar, 18 hours at 37°C
[22] = Bord. bronchiseptica BO9, Diagnostic Sensitivity Test Agar, 18 hours at 37°C
[23] = Strep. uberis SPU1, Diagnostic Sensitivity Test Agar, 18 hours at 37°C
[24] = Past. multocida PA1, Diagnostic Sensitivity Test Agar, 18 hours at 37°C

Row | Compound | MIC ([1]; Staphylococcus aureus, 18 h) [µg/mL] | MIC ([2]; read-out: MIC) [µg/mL] | MIC (Strep. pneumoniae CN33; [8]) [µg/mL] | MIC ([3]; read-out: MIC) [µg/mL] | MIC (Past. haemolytica PA5; [9]) [µg/mL] | MIC (M. suipneumoniae UCD 1; [10]) [µg/mL] | MIC ([4]; CY1, 18 h) [µg/mL] | MIC (E. coli NCTC 10418; [11]) [µg/mL] | MIC ([5]; 144 h, read-out: MIC) [µg/mL] | MIC (M. suipneumoniae Str. 11; [12]) [µg/mL] | MIC (M. pneumoniae ATCC 15492; [13]) [µg/mL] | MIC (Bord. bronchiseptica BO9; [14]) [µg/mL] | MIC (M. suipneumoniae LABER; [12]) [µg/mL] | MIC (Strep. uberis SPU1; [15]) [µg/mL] | MIC (Past. multocida PA1; [16]) [µg/mL] | MIC ([6]; 144 h, read-out: MIC) [µg/mL] | MIC (M. hyorhinis ATCC 25021; [17]) [µg/mL] | MIC [7, 12] [µg/mL] | other results
1 | CC(=CC(=O)OCc1cccc(S(C)(=O)=O)c1)CC1OCC(CC2OC2C(C)C(C)O)C(O)C1O (centres unmarked) [Example 7, m-Methylsulfonylbenzyl monate A] | 2.5 (≈ 4.88 µM) | 1 (≈ 1.95 µM) | 1 (≈ 1.95 µM) | 2.5 (≈ 4.88 µM) | 10 (≈ 19.5 µM) | 1 (≈ 1.95 µM) | > 80 | > 80 | 0.05 (≈ 0.0975 µM) | 0.5 (≈ 0.975 µM) | 2.5 (≈ 4.88 µM) | 20 (≈ 39 µM) | 0.5 (≈ 0.975 µM) | 0.625 (≈ 1.22 µM) | 2.5 (≈ 4.88 µM) | 0.25 (≈ 0.488 µM) | 0.5 (≈ 0.975 µM) | 0.5 (≈ 0.975 µM) | 
2 | CSc1ccc(COC(=O)C=C(C)CC2OCC(CC3OC3C(C)C(C)O)C(O)C2O)cc1 (centres unmarked) [Example 1, p-Methylthiobenzyl monate A] | 0.156 (≈ 0.325 µM) | 0.25 (≈ 0.52 µM) | 0.5 (≈ 1.04 µM) | 1 (≈ 2.08 µM) | 0.312 (≈ 0.649 µM) | 0.5 (≈ 1.04 µM) | > 80 | > 80 | 0.025 (≈ 0.052 µM) | 0.25 (≈ 0.52 µM) | 1 (≈ 2.08 µM) | 5 (≈ 10.4 µM) | 0.25 (≈ 0.52 µM) | 0.039 (≈ 0.0811 µM) | 0.156 (≈ 0.325 µM) | 0.05 (≈ 0.104 µM) | 0.25 (≈ 0.52 µM) | 0.25 (≈ 0.52 µM) | 
3 | 1-(p-Methylsulfinylphenyl)ethyl monate A [Example 8] |  |  |  |  |  |  |  |  |  |  |  |  |  |  |  |  |  |  | MIC [1, 18]: 20 µg/mL; MIC [2]: 4.0 µg/mL; MIC (Strep. pneumoniae CN33): 8.0 µg/mL; MIC [3]: 8.0 µg/mL; MIC (Past. haemolytica PA5; [19]): 80 µg/mL; MIC (M. suipneumoniae UCD 1): 2.5 µg/mL; MIC [4, 20]: >80 µg/mL; MIC (E. coli NCTC 10418; [21]): >80 µg/mL; MIC [5]: 0.1 µg/mL; MIC (M. suipneumoniae Str. 11): 1.0 µg/mL; MIC (M. pneumoniae ATCC 15492): 10 µg/mL; MIC (Bord. bronchiseptica BO9; [22]): >80 µg/mL; MIC (M. suipneumoniae LABER): 2.5 µg/mL; MIC (Strep. uberis SPU1; [23]): .625 µg/mL; MIC (Past. multocida PA1; [24]): 10 µg/mL; MIC [6]: 0.5 µg/mL; MIC (M. hyorhinis ATCC 25021): 1.0 µg/mL; MIC [7]: 1.0 µg/mL
4 | CC(=CC(=O)OCc1ccc([S+](C)[O-])cc1)CC1OCC(CC2OC2C(C)C(C)O)C(O)C1O (centres unmarked) [Example 2, p- Methylsulphinylbenzyl monate A] | 2.5 (≈ 5.03 µM) | 0.5 (≈ 1.01 µM) | 1 (≈ 2.01 µM) | 0.5 (≈ 1.01 µM) | 5 (≈ 10.1 µM) | 0.25 (≈ 0.503 µM) | > 80 | > 80 | 0.025 (≈ 0.0503 µM) | 0.25 (≈ 0.503 µM) | 1 (≈ 2.01 µM) | 5 (≈ 10.1 µM) | 0.25 (≈ 0.503 µM) | 0.156 (≈ 0.314 µM) | 0.625 (≈ 1.26 µM) | 0.05 (≈ 0.101 µM) | 0.1 (≈ 0.201 µM) | 0.1 (≈ 0.201 µM) | 
5 | CC(=CC(=O)OCc1ccc(S(C)(=O)=O)cc1)CC1OCC(CC2OC2C(C)C(C)O)C(O)C1O (centres unmarked) [Example 3, p-Methylsulphonylbenzyl monate A] | 1.25 (≈ 2.44 µM) | 0.25 (≈ 0.488 µM) | 0.5 (≈ 0.975 µM) | 0.25 (≈ 0.488 µM) | 5 (≈ 9.75 µM) | 0.25 (≈ 0.488 µM) | > 80 | 80 (≈ 156 µM) | ≤ 0.01 | 0.1 (≈ 0.195 µM) | 0.25 (≈ 0.488 µM) | 2.5 (≈ 4.88 µM) | 0.1 (≈ 0.195 µM) | 0.312 (≈ 0.609 µM) | 0.025 (≈ 0.0488 µM) | 0.025 (≈ 0.0488 µM) | 0.05 (≈ 0.0975 µM) | 0.1 (≈ 0.195 µM) | 
6 | m-Methylthiobenzyl monate A [Example 5] |  |  |  |  |  |  |  |  |  |  |  |  |  |  |  |  |  |  | MIC [1, 18]: .156 µg/mL; MIC [2]: 0.5 µg/mL; MIC (Strep. pneumoniae CN33): 1.0 µg/mL; MIC [3]: 10 µg/mL; MIC (Past. haemolytica PA5; [19]): 10 µg/mL; MIC (M. suipneumoniae UCD 1): 0.5 µg/mL; MIC [4, 20]: >80 µg/mL; MIC (E. coli NCTC 10418; [21]): >80 µg/mL; MIC [5]: 0.025 µg/mL; MIC (M. suipneumoniae Str. 11): 0.25 µg/mL; MIC (M. pneumoniae ATCC 15492): 5.0 µg/mL; MIC (Bord. bronchiseptica BO9; [22]): 2.5 µg/mL; MIC (M. suipneumoniae LABER): 0.25 µg/mL; MIC (Strep. uberis SPU1; [23]): .07 µg/mL; MIC (Past. multocida PA1; [24]): 2.5 µg/mL; MIC [6]: 0.5 µg/mL; MIC (M. hyorhinis ATCC 25021): 0.25 µg/mL; MIC [7]: 0.25 µg/mL
7 | CC(=CC(=O)OCc1cccc([S+](C)[O-])c1)CC1OCC(CC2OC2C(C)C(C)O)C(O)C1O (centres unmarked) [Example 6, m-Methylsulfinylbenzyl monate A] | 5 (≈ 10.1 µM) | 12.5 (≈ 25.2 µM) | 25 (≈ 50.3 µM) | 25 (≈ 50.3 µM) | 80 (≈ 161 µM) | 10 (≈ 20.1 µM) | > 80 | > 80 | 0.25 (≈ 0.503 µM) | 5 (≈ 10.1 µM) | 5 (≈ 10.1 µM) | > 80 | 5 (≈ 10.1 µM) | 5 (≈ 10.1 µM) | 80 (≈ 161 µM) | 5 (≈ 10.1 µM) | 5 (≈ 10.1 µM) | 5 (≈ 10.1 µM) | 
8 | CC(=CC(=O)OC(C)c1ccc(S(C)(=O)=O)cc1)CC1OCC(CC2OC2C(C)C(C)O)C(O)C1O (centres unmarked) [Example 9, 1-(p-Methylsulfonylphenyl)ethyl monate A] | 5 (≈ 9.49 µM) | 2 (≈ 3.8 µM) | 4 (≈ 7.6 µM) | 8 (≈ 15.2 µM) | 40 (≈ 76 µM) | 1 (≈ 1.9 µM) | > 80 | > 80 | 0.05 (≈ 0.0949 µM) | 0.5 (≈ 0.949 µM) | 0.5 (≈ 0.949 µM) | 80 (≈ 152 µM) | 0.5 (≈ 0.949 µM) | 0.312 (≈ 0.592 µM) | 5 (≈ 9.49 µM) | 0.25 (≈ 0.475 µM) | 0.5 (≈ 0.949 µM) |  | 
